Data: patent US12568972B2, “Pyridazinol compounds and derivatives, preparation methods, herbicidal compositions and applications thereof” (Qingdao Kingagroot Chemical Compound Co., Ltd., priority 2018, dated 2026)

How the values were obtained:
Assay in all cases: Post-emergence test, weed control effect
Type in all cases: in vivo
Details in all cases: after 3 weeks
Veronica polita = tested on: Veronica polita
Method in brief: (§1)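 Greenhouse pots, soil-sown, 0.5-2 cm cover; foliar spray at 2-3 leaf stage (2-3 wk post-sowing); cpd in acetone + Tween-80, water-diluted, + 80% veg. oil methyl ester synergist 1500 g/ha; 3 wk culture; fresh-wt inhibition graded 0-10.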

Chenopodiaceae = tested on: Chenopodiaceae
Method in brief: as §1

Amaranthus retroflexus = tested on: Amaranthus retroflexus
Method in brief: as §1

Rorippa indica = tested on: Rorippa indica
Method in brief: as §1

Cn1ccnc1S(=O)(=O)Oc1cc(C(F)(F)F)nnc1-c1cccc(F)c1 [Compound 1-150]
10: weed control effect, Veronica polita (activity level) (Veronica polita; Dose 3000 g/ha) | weed control effect, Chenopodiaceae (activity level) (Chenopodiaceae; Dose 3000 g/ha) | weed control effect, Amaranthus retroflexus (activity level) (Amaranthus retroflexus; Dose 3000 g/ha) | weed control effect, Rorippa indica (activity level) (Rorippa indica; Dose 3000 g/ha)

COc1cc(-c2nnc(C(F)(F)F)cc2O)n(C)n1 [Compound 782]
10: weed control effect (activity level), Veronica polita (Veronica polita; Dose 3000 g/ha) | weed control effect (activity level), Chenopodiaceae (Chenopodiaceae; Dose 3000 g/ha) | weed control effect (activity level), Amaranthus retroflexus (Amaranthus retroflexus; Dose 3000 g/ha) | weed control effect (activity level), Rorippa indica (Rorippa indica; Dose 3000 g/ha)

Oc1cc(C(F)(F)F)nnc1-c1cc2ccccc2o1 [Compound 613]
10: weed control effect (activity level), Veronica polita (Veronica polita; Dose 3000 g/ha) | weed control effect (activity level), Chenopodiaceae (Chenopodiaceae; Dose 3000 g/ha) | weed control effect (activity level), Amaranthus retroflexus (Amaranthus retroflexus; Dose 3000 g/ha) | weed control effect (activity level), Rorippa indica (Rorippa indica; Dose 3000 g/ha)

Oc1cc(C(F)(F)F)nnc1-c1cnccc1Cl [Compound 204]
10: weed control effect (activity level), Veronica polita (Veronica polita; dose 2000 g/ha) | weed control effect (activity level), Chenopodiaceae (Chenopodiaceae; dose 2000 g/ha) | weed control effect (activity level), Amaranthus retroflexus (Amaranthus retroflexus; dose 2000 g/ha) | weed control effect (activity level), Rorippa indica (Rorippa indica; dose 2000 g/ha)

Oc1cc(C(F)(F)F)nnc1-c1ccc(I)nc1 [Compound 970]
10: weed control effect (activity level), Veronica polita (Veronica polita; Dose 3000 g/ha) | weed control effect (activity level), Chenopodiaceae (Chenopodiaceae; Dose 3000 g/ha) | weed control effect (activity level), Amaranthus retroflexus (Amaranthus retroflexus; Dose 3000 g/ha) | weed control effect (activity level), Rorippa indica (Rorippa indica; Dose 3000 g/ha)

Oc1cc(C(F)(F)F)nnc1-c1cc2ccccc2s1 [Compound 594]
10: weed control effect (activity level), Veronica polita (Veronica polita; Dose 3000 g/ha) | weed control effect (activity level), Chenopodiaceae (Chenopodiaceae; Dose 3000 g/ha) | weed control effect (activity level), Amaranthus retroflexus (Amaranthus retroflexus; Dose 3000 g/ha) | weed control effect (activity level), Rorippa indica (Rorippa indica; Dose 3000 g/ha)

Cn1nc(I)cc1-c1nnc(C(F)(F)F)cc1O [Compound 778]
10: weed control effect (activity level), Veronica polita (Veronica polita; Dose 3000 g/ha) | weed control effect (activity level), Chenopodiaceae (Chenopodiaceae; Dose 3000 g/ha) | weed control effect (activity level), Amaranthus retroflexus (Amaranthus retroflexus; Dose 3000 g/ha) | weed control effect (activity level), Rorippa indica (Rorippa indica; Dose 3000 g/ha)

Oc1cc(C(F)(F)F)nnc1-c1cccc(Cl)c1 [Compound 27]
10: weed control effect (activity level), Veronica polita (Veronica polita; dose 1000 g/ha) | weed control effect (activity level), Chenopodiaceae (Chenopodiaceae; dose 1000 g/ha) | weed control effect (activity level), Amaranthus retroflexus (Amaranthus retroflexus; dose 1000 g/ha) | weed control effect (activity level), Rorippa indica (Rorippa indica; dose 1000 g/ha)

CC(C)n1nccc1-c1nnc(C(F)(F)F)cc1O [Compound 828]
10: weed control effect (activity level), Veronica polita (Veronica polita; Dose 3000 g/ha) | weed control effect (activity level), Chenopodiaceae (Chenopodiaceae; Dose 3000 g/ha) | weed control effect (activity level), Amaranthus retroflexus (Amaranthus retroflexus; Dose 3000 g/ha) | weed control effect (activity level), Rorippa indica (Rorippa indica; Dose 3000 g/ha)

O=C(COc1cc(C(F)(F)F)nnc1-c1ccc(F)cc1)c1ccccc1 [Compound 1-212]
10: weed control effect, Veronica polita (activity level) (Veronica polita; Dose 3000 g/ha) | weed control effect, Chenopodiaceae (activity level) (Chenopodiaceae; Dose 3000 g/ha) | weed control effect, Amaranthus retroflexus (activity level) (Amaranthus retroflexus; Dose 3000 g/ha) | weed control effect, Rorippa indica (activity level) (Rorippa indica; Dose 3000 g/ha)

Oc1cc(C(F)(F)F)nnc1-c1cc(F)cc(Cl)c1 [Compound 46]
10: weed control effect (activity level), Veronica polita (Veronica polita; dose 1000 g/ha) | weed control effect (activity level), Chenopodiaceae (Chenopodiaceae; dose 1000 g/ha) | weed control effect (activity level), Amaranthus retroflexus (Amaranthus retroflexus; dose 1000 g/ha) | weed control effect (activity level), Rorippa indica (Rorippa indica; dose 1000 g/ha)

O=Cc1ccc(-c2nnc(C(F)(F)F)cc2O)cc1F [Compound 65]
10: weed control effect (activity level), Veronica polita (Veronica polita; dose 1000 g/ha) | weed control effect (activity level), Chenopodiaceae (Chenopodiaceae; dose 1000 g/ha) | weed control effect (activity level), Amaranthus retroflexus (Amaranthus retroflexus; dose 1000 g/ha) | weed control effect (activity level), Rorippa indica (Rorippa indica; dose 1000 g/ha)

CCCCOC(=S)Oc1cc(C(F)(F)F)nnc1-c1ccc(F)c(F)c1 [Compound 1-157]
10: weed control effect, Veronica polita (activity level) (Veronica polita; Dose 3000 g/ha) | weed control effect, Chenopodiaceae (activity level) (Chenopodiaceae; Dose 3000 g/ha) | weed control effect, Amaranthus retroflexus (activity level) (Amaranthus retroflexus; Dose 3000 g/ha) | weed control effect, Rorippa indica (activity level) (Rorippa indica; Dose 3000 g/ha)

CC(=O)Oc1cc(C(F)(F)F)nnc1-c1ccc(F)cc1 [Compound 1-2]
10: weed control effect, Veronica polita (activity level) (Veronica polita; Dose 3000 g/ha) | weed control effect, Chenopodiaceae (activity level) (Chenopodiaceae; Dose 3000 g/ha) | weed control effect, Amaranthus retroflexus (activity level) (Amaranthus retroflexus; Dose 3000 g/ha) | weed control effect, Rorippa indica (activity level) (Rorippa indica; Dose 3000 g/ha)

CC(C)(C)CSC(=O)Oc1cc(C(F)(F)F)nnc1-c1cccc(Br)c1 [Compound 1-51]
10: weed control effect, Veronica polita (activity level) (Veronica polita; Dose 3000 g/ha) | weed control effect, Chenopodiaceae (activity level) (Chenopodiaceae; Dose 3000 g/ha) | weed control effect, Amaranthus retroflexus (activity level) (Amaranthus retroflexus; Dose 3000 g/ha) | weed control effect, Rorippa indica (activity level) (Rorippa indica; Dose 3000 g/ha)

Oc1cc(C(F)(F)F)nnc1-c1cnccc1C(F)(F)F [Compound 978]
10: weed control effect (activity level), Veronica polita (Veronica polita; Dose 3000 g/ha) | weed control effect (activity level), Chenopodiaceae (Chenopodiaceae; Dose 3000 g/ha) | weed control effect (activity level), Amaranthus retroflexus (Amaranthus retroflexus; Dose 3000 g/ha) | weed control effect (activity level), Rorippa indica (Rorippa indica; Dose 3000 g/ha)

Oc1cc(C(F)(F)F)nnc1-c1ccccn1 [Compound 263]
10: weed control effect (activity level), Veronica polita (Veronica polita; dose 2000 g/ha) | weed control effect (activity level), Chenopodiaceae (Chenopodiaceae; dose 2000 g/ha) | weed control effect (activity level), Amaranthus retroflexus (Amaranthus retroflexus; dose 2000 g/ha) | weed control effect (activity level), Rorippa indica (Rorippa indica; dose 2000 g/ha)

CCCCC(CCCC)=NOc1cc(C(F)(F)F)nnc1-c1cccc([N+](=O)[O-])c1 [Compound 1-178]
10: weed control effect, Veronica polita (activity level) (Veronica polita; Dose 3000 g/ha) | weed control effect, Chenopodiaceae (activity level) (Chenopodiaceae; Dose 3000 g/ha) | weed control effect, Amaranthus retroflexus (activity level) (Amaranthus retroflexus; Dose 3000 g/ha) | weed control effect, Rorippa indica (activity level) (Rorippa indica; Dose 3000 g/ha)
